Activity calls are given as the source filed them. The calls are words filed in the database; no cut-off is given here.
Key:
Escherichia coli [1] = assay: Induction of Cu2+-dependent DNA cleavage in pSP64 DNA assessed as form 2 DNA formation at 0.01 uM
Escherichia coli [2] = assay: Induction of Cu2+-dependent DNA cleavage in pSP64 DNA assessed as form 3 DNA formation
Escherichia coli [3] = assay: Induction of Cu2+-dependent DNA cleavage in pSP64 DNA assessed as form 2 DNA formation at 10 uM
Escherichia coli [4] = assay: Induction of Cu2+-dependent DNA cleavage in pSP64 DNA assessed as form 2 DNA formation at 5 uM
Escherichia coli [5] = assay: Induction of Cu2+-dependent DNA cleavage in pSP64 DNA assessed as form 2 DNA formation at 1 uM
Escherichia coli [6] = assay: Induction of Cu2+-dependent DNA cleavage in pSP64 DNA assessed as form 2 DNA formation at 0.1 uM

## CC1=CC(=O)O[C@H]1COC(=O)/C=C/c1ccc(O)c(O)c1
Escherichia coli [1]
  Activity: 16%
Escherichia coli [2]
  Activity: inactive
Escherichia coli [3]
  Activity: 92%
Escherichia coli [4]
  Activity: 88%
Escherichia coli [5]
  Activity: 68%
Escherichia coli [6]
  Activity: 32%

Source: ChEMBL document CHEMBL1158722, “Umbelactonyl cinnamate derivatives from Crypteronia paniculata that mediate DNA strand scission” (J Nat Prod, 2005)
